In patent US20100267638A1, “EXOSITE-DIRECTED THROMBIN INHIBITORS” (CLEVELAND STATE UNIVERSITY, priority 2003, published 2010):
Like-named read-outs stand apart in the source and are kept apart here. No end group written: not given here.

What was measured:
[1] = target: T1, prothrombinase (Homo sapiens, UniProt P00734); assay: Assay measuring thrombin formation (prothrombinase inhibition by peptides, DAPA fluorescence); assay type: biochemical
T1 construct: purchased Haematologic Technologies Inc. (Essex Junction, Vt.)

[2] = target: T2, prothrombin (Homo sapiens, UniProt P00734); assay: KD of peptide for prothrombin, from kinetics of prothrombinase inhibition; assay type: biochemical
T2 construct: purchased Haematologic Technologies Inc. (Essex Junction, Vt.)
Description: The mechanism of inhibition of prothrombinase by the hirudin-like peptides HC3 and HC4 was addressed by investigating the effect of the peptides on the kinetic parameters of the enzymatic complex (Km and Vmax). For the sake of simplicity only the results obtained with HC4 are shown (FIG. 2C). In FIG. 2C, the data are plotted as V0 (initial velocity, in arbitrary units) as a function of increasing prothrombin concentration in the presence of increasing concentrations of HC4. The lines drawn represent the best fit through the points with an R^2 of 0.99. The concentrations of HC4 used in the experiments are as follows: control no peptide (filled squares), 0.5 μM peptide (filled circles), 1 μM peptide (filled inverted triangles), 1.5 μM peptide (filled diamonds), and 2 μM peptide (filled triangles). […]
In FIG. 3B, the data are plotted as V0 (initial velocity, in arbitrary units) as a function of increasing prothrombin concentration in the presence of increasing concentrations of peptide DYDYQ. […] The kinetic constants calculated from the data presented in this graph were used to calculate the kcat reported in FIG. 7 assuming a final concentration of 4 nM prothrombinase. […]

- concentration at which complete inhibition of prothrombinase occurred ([1]; FIG. 3A): 40 µM
- Ki ([1]; calculated from IC50 of 1.6 μM as in FIG. 2C legend, read-out: Ki for inhibition of prothrombinase): 850 nM
- IC50 ([1]; factor Va 4 nM, factor Xa 10 nM, prothrombin 350 nM, PCPS 10 μM, peptide preincubated with factor Va): 1600 nM
- Kd ([2]; from Ki of prothrombinase inhibition, read-out: KD for prothrombin): 850 nM
- Kd ([2]; kinetic model FIG. 7, read-out: KD of inhibitor interaction with prothrombin): ~850 nM
Substance: DYDYQ [DYDYQ, Asp-Tyr-Asp-Tyr-Gln]
- inhibition of prothrombinase activity with increasing peptide ([1]; FIG. 10A, up to 8000 nM): decrease in the activity of prothrombinase
